From patent publication US10669284B2, “Fused thiazolopyrimidine derivatives as MNKS inhibitors” (LIFEARC, priority 2015, dated 2020)

What was measured:
PLK1 = PLK1 (Homo sapiens, UniProt P53350); experiment: Kinase selectivity screen PLK1; details: read-out: % inhibition of PLK1
PRKCE = target: T1, PRKCE (Homo sapiens, UniProt Q02156); experiment: Kinase selectivity screen PRKCE; details: read-out: % inhibition of PRKCE
T1 sequence (Q02156 1-737): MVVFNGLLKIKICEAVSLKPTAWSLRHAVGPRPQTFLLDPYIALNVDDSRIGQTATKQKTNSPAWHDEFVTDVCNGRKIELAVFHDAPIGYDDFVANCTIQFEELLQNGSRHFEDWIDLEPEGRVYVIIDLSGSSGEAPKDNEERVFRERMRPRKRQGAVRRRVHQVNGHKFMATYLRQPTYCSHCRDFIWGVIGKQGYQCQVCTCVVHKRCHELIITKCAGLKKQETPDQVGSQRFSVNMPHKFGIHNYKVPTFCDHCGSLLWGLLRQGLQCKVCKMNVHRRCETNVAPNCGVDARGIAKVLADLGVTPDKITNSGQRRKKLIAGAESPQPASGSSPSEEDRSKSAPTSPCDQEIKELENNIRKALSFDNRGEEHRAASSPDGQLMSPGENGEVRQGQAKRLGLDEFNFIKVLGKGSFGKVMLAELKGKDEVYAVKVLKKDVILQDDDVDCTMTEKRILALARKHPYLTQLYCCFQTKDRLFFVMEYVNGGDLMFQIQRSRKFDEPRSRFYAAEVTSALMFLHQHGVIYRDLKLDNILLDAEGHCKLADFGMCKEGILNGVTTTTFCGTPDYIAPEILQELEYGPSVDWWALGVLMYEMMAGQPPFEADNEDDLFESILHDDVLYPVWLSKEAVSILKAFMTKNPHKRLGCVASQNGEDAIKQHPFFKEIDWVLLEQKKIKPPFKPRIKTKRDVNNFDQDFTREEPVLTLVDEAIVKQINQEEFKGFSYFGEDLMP

EPHA5 = EPHA5 (Homo sapiens, UniProt P54756); experiment: Kinase selectivity screen EPHA5; details: read-out: % inhibition of EPHA5
Chain of EPHA5 (P54756 25-1037, species assumed): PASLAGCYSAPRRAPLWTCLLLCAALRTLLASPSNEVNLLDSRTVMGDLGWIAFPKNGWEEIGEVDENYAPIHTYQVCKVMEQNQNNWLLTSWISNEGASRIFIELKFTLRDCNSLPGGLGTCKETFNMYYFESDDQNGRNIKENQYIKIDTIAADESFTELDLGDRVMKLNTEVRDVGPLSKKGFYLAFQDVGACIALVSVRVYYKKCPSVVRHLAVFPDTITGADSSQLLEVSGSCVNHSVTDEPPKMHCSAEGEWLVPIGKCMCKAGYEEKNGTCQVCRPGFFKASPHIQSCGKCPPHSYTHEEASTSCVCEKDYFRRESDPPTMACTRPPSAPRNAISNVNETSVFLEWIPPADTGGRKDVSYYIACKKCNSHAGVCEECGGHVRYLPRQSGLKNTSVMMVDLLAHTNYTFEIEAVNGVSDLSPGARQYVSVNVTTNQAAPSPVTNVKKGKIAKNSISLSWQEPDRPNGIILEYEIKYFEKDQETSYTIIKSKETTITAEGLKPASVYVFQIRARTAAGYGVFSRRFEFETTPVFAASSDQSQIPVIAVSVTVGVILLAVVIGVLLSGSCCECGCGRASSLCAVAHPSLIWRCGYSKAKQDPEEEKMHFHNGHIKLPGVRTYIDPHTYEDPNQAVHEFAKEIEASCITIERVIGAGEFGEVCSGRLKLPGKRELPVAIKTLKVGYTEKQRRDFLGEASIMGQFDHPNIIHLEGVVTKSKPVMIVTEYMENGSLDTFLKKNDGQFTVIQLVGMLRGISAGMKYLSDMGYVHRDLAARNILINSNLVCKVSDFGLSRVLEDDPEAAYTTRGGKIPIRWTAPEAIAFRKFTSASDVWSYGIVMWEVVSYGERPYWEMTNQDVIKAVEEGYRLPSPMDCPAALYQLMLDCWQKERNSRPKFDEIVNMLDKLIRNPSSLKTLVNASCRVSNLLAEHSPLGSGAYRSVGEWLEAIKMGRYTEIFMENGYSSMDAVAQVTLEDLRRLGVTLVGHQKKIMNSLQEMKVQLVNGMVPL

STK10 = STK10 (Homo sapiens, UniProt O94804); experiment: Kinase selectivity screen STK10; details: read-out: % inhibition of STK10
PIK3CG = PIK3CG (Homo sapiens, UniProt P48736); experiment: Kinase selectivity screen PIK3CG; details: read-out: % inhibition of PIK3CG
Chain of PIK3CG (P48736 whole entry, species assumed): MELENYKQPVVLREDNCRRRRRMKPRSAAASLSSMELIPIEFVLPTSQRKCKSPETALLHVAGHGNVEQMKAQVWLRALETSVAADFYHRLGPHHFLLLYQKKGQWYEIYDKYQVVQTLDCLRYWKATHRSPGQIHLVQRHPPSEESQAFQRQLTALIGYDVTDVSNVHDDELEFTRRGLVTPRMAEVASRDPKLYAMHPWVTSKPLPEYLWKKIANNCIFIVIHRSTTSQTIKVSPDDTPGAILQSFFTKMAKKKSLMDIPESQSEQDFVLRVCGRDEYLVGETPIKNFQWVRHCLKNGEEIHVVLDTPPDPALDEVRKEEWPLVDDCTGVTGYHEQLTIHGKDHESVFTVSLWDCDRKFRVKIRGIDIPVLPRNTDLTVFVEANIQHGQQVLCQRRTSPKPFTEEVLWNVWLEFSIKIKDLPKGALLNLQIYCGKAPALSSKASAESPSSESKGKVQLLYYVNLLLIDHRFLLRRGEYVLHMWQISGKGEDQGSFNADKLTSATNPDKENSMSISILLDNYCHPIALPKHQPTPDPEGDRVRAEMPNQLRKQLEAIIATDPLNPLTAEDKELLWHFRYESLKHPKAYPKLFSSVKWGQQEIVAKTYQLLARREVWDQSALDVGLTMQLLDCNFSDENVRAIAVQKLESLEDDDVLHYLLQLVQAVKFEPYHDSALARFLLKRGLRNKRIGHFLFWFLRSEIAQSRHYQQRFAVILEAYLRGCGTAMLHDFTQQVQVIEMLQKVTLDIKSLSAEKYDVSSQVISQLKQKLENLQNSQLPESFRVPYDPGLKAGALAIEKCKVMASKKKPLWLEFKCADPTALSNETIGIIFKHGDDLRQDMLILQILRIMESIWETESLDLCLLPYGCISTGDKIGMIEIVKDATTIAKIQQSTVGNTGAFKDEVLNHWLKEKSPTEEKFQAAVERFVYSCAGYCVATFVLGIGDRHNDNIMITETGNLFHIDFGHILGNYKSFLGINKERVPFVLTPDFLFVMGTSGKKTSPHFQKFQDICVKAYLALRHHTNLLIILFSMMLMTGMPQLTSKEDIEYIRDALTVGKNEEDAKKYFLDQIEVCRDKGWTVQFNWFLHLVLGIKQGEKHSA

DMPK = target: T2, DMPK (Homo sapiens, UniProt Q09013); experiment: Kinase selectivity screen DMPK; details: read-out: % inhibition of DMPK
T2 sequence (Q09013 1-629): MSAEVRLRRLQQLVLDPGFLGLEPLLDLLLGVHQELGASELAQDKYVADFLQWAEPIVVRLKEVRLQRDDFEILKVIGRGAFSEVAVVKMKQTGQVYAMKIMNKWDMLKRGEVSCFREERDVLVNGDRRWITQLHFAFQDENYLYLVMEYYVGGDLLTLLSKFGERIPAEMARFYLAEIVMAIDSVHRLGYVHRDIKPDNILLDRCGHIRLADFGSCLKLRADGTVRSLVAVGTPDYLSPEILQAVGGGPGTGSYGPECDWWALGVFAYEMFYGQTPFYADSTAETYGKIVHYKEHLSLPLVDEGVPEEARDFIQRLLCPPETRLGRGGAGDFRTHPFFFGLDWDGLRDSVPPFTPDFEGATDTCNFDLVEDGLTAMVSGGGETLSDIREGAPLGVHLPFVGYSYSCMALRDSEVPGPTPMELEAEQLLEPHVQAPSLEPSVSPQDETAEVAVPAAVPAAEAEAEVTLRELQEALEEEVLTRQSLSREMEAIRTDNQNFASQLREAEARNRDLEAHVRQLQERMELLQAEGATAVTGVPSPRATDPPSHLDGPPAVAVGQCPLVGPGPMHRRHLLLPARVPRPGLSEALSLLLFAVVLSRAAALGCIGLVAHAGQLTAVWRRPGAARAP

RET = RET (Homo sapiens, UniProt P07949); experiment: Kinase selectivity screen RET; details: read-out: % inhibition of RET
CDK1/CCNB1 = CDK1/CCNB1 (Homo sapiens, UniProt P06493); experiment: Kinase selectivity screen CDK1/CCNB1; details: read-out: % inhibition of CDK1/CCNB1
MAPK8 = MAPK8 (Homo sapiens, UniProt P45983); experiment: Kinase selectivity screen MAPK8; details: read-out: % inhibition of MAPK8
Chain of MAPK8 (P45983 whole entry, species assumed): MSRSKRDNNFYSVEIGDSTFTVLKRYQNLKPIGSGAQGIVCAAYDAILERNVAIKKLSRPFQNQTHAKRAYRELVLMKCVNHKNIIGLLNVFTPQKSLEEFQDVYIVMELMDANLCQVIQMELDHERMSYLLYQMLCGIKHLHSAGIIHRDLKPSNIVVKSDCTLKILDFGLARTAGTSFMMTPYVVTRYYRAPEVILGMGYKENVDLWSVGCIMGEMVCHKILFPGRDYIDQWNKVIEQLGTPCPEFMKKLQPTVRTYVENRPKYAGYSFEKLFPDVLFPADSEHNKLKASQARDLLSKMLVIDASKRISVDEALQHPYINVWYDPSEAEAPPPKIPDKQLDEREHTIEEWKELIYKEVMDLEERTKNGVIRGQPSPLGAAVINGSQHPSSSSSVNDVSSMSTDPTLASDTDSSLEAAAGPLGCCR

BLK = BLK (Homo sapiens, UniProt P51451); experiment: Kinase selectivity screen BLK; details: read-out: % inhibition of BLK
Chain of BLK (P51451 whole entry, species assumed): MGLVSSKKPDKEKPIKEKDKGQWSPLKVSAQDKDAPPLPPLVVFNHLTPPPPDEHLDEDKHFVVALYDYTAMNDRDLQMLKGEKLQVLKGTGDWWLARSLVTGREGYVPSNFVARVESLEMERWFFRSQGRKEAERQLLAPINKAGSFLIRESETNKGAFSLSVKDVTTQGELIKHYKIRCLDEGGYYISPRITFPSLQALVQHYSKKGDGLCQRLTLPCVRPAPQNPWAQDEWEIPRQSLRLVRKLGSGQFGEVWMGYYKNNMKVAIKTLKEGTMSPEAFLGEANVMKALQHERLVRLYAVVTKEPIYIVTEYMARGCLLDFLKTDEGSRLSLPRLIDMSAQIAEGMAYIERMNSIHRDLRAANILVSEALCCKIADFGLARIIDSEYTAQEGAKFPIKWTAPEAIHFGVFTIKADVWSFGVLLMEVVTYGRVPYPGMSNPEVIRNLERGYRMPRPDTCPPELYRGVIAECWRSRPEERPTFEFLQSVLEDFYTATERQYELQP

NUAK1 = target: T3, NUAK1 (Homo sapiens, UniProt O60285); experiment: Kinase selectivity screen NUAK1; details: read-out: % inhibition of NUAK1
T3 sequence (O60285 1-661): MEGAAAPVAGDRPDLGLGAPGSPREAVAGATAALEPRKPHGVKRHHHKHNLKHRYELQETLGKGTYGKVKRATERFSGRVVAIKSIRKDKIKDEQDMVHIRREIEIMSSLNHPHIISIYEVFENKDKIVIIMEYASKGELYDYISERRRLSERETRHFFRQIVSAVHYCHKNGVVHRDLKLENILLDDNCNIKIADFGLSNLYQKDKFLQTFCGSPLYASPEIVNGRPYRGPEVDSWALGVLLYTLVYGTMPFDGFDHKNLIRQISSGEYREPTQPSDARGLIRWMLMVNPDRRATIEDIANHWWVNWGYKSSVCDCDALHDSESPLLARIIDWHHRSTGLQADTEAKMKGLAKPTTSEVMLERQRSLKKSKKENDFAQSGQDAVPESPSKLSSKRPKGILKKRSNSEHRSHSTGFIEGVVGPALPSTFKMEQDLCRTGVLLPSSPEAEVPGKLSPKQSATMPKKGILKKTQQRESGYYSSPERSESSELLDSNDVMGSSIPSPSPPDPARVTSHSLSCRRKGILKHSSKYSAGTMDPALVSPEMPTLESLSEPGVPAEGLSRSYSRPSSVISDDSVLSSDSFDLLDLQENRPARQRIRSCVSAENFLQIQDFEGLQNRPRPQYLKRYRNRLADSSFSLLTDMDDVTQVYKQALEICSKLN

ROCK1 = ROCK1 (Homo sapiens, UniProt Q13464); experiment: Kinase selectivity screen ROCK1; details: read-out: % inhibition of ROCK1
Chain of ROCK1 (Q13464 whole entry, species assumed): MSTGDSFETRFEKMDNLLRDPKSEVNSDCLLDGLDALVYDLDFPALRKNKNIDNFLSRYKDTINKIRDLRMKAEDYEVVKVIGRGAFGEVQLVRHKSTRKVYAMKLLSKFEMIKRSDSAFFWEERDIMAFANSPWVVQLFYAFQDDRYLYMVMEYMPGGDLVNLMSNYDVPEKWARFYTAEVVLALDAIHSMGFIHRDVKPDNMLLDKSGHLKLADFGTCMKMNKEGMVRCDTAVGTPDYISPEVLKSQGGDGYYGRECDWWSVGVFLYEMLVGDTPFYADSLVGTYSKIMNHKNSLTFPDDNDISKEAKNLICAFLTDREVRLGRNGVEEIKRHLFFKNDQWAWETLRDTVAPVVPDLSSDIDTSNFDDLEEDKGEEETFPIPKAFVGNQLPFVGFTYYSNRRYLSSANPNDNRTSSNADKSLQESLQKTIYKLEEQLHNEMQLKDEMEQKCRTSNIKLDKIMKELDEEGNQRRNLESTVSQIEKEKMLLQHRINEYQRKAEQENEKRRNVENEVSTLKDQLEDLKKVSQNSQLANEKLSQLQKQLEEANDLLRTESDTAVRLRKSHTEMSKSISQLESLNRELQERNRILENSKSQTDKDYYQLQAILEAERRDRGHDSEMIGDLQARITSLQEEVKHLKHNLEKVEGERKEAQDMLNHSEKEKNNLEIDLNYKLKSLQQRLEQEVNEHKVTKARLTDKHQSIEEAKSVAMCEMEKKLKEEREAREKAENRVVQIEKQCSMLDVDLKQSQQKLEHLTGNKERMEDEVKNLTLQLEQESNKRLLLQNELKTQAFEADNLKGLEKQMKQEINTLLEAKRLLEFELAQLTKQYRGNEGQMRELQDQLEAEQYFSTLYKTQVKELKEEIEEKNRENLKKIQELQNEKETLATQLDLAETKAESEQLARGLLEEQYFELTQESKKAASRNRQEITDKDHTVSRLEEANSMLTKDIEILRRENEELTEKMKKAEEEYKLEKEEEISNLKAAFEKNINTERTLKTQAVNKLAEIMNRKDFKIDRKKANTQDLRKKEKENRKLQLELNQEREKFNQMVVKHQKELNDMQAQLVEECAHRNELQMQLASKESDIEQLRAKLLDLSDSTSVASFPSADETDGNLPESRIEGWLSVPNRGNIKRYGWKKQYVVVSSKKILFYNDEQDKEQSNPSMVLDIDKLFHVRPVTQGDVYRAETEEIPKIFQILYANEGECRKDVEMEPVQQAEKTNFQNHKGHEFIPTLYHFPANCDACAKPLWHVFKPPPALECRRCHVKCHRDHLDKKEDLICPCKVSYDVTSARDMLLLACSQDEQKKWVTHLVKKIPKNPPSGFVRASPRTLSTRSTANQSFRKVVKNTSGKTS

Chain of PLK1 (P53350 whole entry, species assumed): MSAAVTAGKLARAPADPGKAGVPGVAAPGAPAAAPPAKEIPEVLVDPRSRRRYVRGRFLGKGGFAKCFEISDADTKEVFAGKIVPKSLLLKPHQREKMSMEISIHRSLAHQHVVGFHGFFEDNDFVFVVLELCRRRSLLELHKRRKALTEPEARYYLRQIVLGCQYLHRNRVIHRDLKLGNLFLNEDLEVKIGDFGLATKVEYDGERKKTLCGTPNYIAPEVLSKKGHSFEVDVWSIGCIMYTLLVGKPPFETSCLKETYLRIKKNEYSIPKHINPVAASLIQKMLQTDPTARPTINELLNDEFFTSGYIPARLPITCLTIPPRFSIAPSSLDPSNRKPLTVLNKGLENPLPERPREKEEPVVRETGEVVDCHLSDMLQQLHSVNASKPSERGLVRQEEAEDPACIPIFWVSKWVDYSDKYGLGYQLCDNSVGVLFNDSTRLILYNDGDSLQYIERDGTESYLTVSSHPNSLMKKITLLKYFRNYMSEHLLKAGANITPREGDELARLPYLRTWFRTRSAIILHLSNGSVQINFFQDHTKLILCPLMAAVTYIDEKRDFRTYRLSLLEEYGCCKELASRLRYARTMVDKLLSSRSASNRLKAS

| SMILES | inhibition at 1 µM (PLK1) | inhibition at 1 µM (PRKCE) | inhibition at 1 µM (EPHA5) | inhibition at 1 µM (STK10) | inhibition at 1 µM (PIK3CG) | inhibition at 1 µM (DMPK) | inhibition at 1 µM (RET) | inhibition at 1 µM (CDK1/CCNB1) | inhibition at 1 µM (MAPK8) | inhibition at 1 µM (BLK) | inhibition at 1 µM (NUAK1) | inhibition at 1 µM (ROCK1) |
| --- | --- | --- | --- | --- | --- | --- | --- | --- | --- | --- | --- | --- |
| CC(C)Oc1cc(F)ccc1Nc1ncnc2sc(C(=O)NCC3CCNCC3)nc12 [Example 10, 7-(4-fluoro-2-isopropoxy-anilino)-N-(4-piperidylmethyl)thiazolo[5,4-d]pyrimidine-2-carboxamide] | 0% | 4% | 11% | 28% | 6% | 0% | 0% | 8% | 5% | 18% | 15% | 0% |
| O=C(NCC1CCNCC1)c1nc2c(N3CCc4cc(F)ccc43)ncnc2s1 [Example 58, 7-(5-fluoroindolin-1-yl)-N-(4-piperidylmethyl)thiazolo[5,4-d]pyrimidine-2-carboxamide] | 1% | 0% | 0% | 71% | 0% | 0% | 0% | 0% | 1% | 0% | 33% | 0% |
| CN(C)CCCNC(=O)c1nc2c(N3CCc4cc(F)ccc43)ncnc2s1 [Example 64, N-[3-(dimethylamino)propyl]-7-(5-fluoroindolin-1-yl)thiazolo[5,4-d]pyrimidine-2-carboxamide] | 0% | 0% | 0% | 81% | 3% | 0% | 0% | 4% | 0% | 1% | 43% | 4% |
